Like-named read-outs stand apart in the source and are kept apart here. Positions of bridges follow the written chain, without caps; N, C: chain ends. Non-standard residues stand in square brackets, D forms with d. Residues, ends and D or L forms follow the SMILES beside them. Hyp = O=C(O)[C@@H]1C[C@@H](O)CN1; NMeNle = CCCC[C@H](NC)C(=O)O; NMeA = CN[C@@H](C)C(=O)O; Dab = NCC[C@H](N)C(=O)O; Sar = CNCC(=O)O
Key:
[1] = biological target: T1, Human PD-L1/PD-1 (Homo sapiens, UniProt Q9NZQ7); test: HTRF PD-1-Ig/PD-L1-His binding assay (human PD-L1); details: cluster symbol; read-out: HTRF IC50 cluster
T1 construct: made in house; host or cells: HEK293T
T1 sequence (Q9NZQ7 with tags, fused parts or gaps): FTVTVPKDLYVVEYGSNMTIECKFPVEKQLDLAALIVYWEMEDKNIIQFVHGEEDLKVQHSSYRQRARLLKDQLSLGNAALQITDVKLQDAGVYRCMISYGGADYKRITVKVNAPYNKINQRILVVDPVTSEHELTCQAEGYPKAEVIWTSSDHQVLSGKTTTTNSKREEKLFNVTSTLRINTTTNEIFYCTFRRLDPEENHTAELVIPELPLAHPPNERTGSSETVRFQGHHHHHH
Outline: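 Ig- and His-fused extracellular PD-1/PD-L1 binding in BSA/Tween-20 dPBS. HTRF with Eu anti-Ig (1 nM final) and APC anti-His (20 nM final).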

[2] = biological target: T2, LK35.2-hPD-L1 cells / PE-labeled PD-1-Ig (Homo sapiens, UniProt Q9NZQ7); test: LK35.2-hPD-L1 cell binding high-content screening assay; format: cell-based; details: cell binding assay, cell line not given
T2 construct: expressed in transfected cells; host or cells: LK35.2 mouse B cell line
T2 sequence (Q9NZQ7 19-290): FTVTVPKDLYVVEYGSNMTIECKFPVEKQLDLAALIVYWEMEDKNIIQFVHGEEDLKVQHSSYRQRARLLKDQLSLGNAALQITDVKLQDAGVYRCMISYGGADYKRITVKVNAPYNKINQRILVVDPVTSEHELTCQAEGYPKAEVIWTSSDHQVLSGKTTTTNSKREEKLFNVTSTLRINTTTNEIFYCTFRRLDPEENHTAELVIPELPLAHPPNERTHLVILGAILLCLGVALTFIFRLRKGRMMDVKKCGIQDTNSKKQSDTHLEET
Outline: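 Readout: high-content imaging of PE-PD-1-Ig bound to LK35.2-hPD-L1 cells. Cells plated overnight (RPMI/10% FCS); compound + 1 nM PE-PD-1-Ig, 1 h, 37 °C; 3× dPBS wash before imaging.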

[3] = cluster symbol, read-out: CBA IC50 cluster

| IC50 [1] [nM] | IC50 [2, 3] [nM] | IC50 ([2]; value given instead of cluster, read-out: CBA IC50 value) [nM] | SMILES |
| --- | --- | --- | --- |
| 6.76 to 30.3 | 4.78 to 72.9 |  | CCCC[C@H]1C(=O)N(C)[C@@H](CCCC)C(=O)N[C@@H](CC(C)C)C(=O)N[C@H](C(=O)NCC(N)=O)CSCC(=O)N[C@@H](Cc2ccc(O)cc2)C(=O)N(C)[C@@H](C)C(=O)N[C@@H](CC(N)=O)C(=O)N(C)CC(=O)N[C@@H](Cc2c[nH]cn2)C(=O)N[C@@H](CCC(N)=O)C(=O)N2C[C@H](O)C[C@H]2C(=O)N[C@@H](Cc2c[nH]c3ccccc23)C(=O)N[C@@H](CO)C(=O)N[C@@H](Cc2c[nH]c3ccccc23)C(=O)N1C [Example 5084] ({CH2CO}-Y[NMeA]N[Sar]HQ[Hyp]WSW[NMeNle][NMeNle]LCG-NH2; thioether N-14) |
| 0.385 to 6.74 | 4.78 to 72.9 |  | CCCC[C@H]1C(=O)N(C)[C@@H](CCCC)C(=O)N[C@@H](CCCNC(=N)N)C(=O)N[C@H](C(=O)NCC(N)=O)CSCC(=O)N[C@@H](Cc2ccc(O)cc2)C(=O)N(C)[C@@H](C)C(=O)N[C@@H](CCN)C(=O)N2CCC[C@H]2C(=O)N[C@@H](Cc2c[nH]cn2)C(=O)N[C@@H](CCC(=O)O)C(=O)N2C[C@H](O)C[C@H]2C(=O)N[C@@H](Cc2c[nH]c3ccccc23)C(=O)N[C@@H](CCN)C(=O)N[C@@H](Cc2c[nH]c3ccccc23)C(=O)N1C [Example 5086] ({CH2CO}-Y[NMeA][Dab]PHE[Hyp]W[Dab]W[NMeNle][NMeNle]RCG-NH2; thioether N-14) |
| 0.385 to 6.74 | 4.78 to 72.9 |  | CCCC[C@H]1C(=O)N(C)[C@@H](CCCC)C(=O)N[C@@H](CCC(=O)O)C(=O)N[C@H](C(=O)NCC(N)=O)CSCC(=O)N[C@@H](Cc2ccc(O)cc2)C(=O)N(C)[C@@H](C)C(=O)N[C@@H](CC(=O)O)C(=O)N2CCC[C@H]2C(=O)N[C@@H](Cc2c[nH]cn2)C(=O)N[C@@H](CCC(N)=O)C(=O)N2C[C@H](O)C[C@H]2C(=O)N[C@@H](Cc2c[nH]c3ccccc23)C(=O)N[C@@H](CO)C(=O)N[C@@H](Cc2c[nH]c3ccccc23)C(=O)N1C [Example 5088] ({CH2CO}-Y[NMeA]DPHQ[Hyp]WSW[NMeNle][NMeNle]ECG-NH2; thioether N-14) |
| 0.385 to 6.74 | 4.78 to 72.9 |  | CCCC[C@H]1C(=O)N(C)[C@@H](CCCC)C(=O)N[C@@H](CC(C)C)C(=O)N[C@H](C(=O)NCC(N)=O)CSCC(=O)N[C@@H](Cc2ccc(O)cc2)C(=O)N(C)[C@@H](C)C(=O)N[C@@H](CCN)C(=O)N2CCC[C@H]2C(=O)N[C@@H](Cc2c[nH]cn2)C(=O)N[C@@H](CCC(=O)O)C(=O)N2C[C@H](O)C[C@H]2C(=O)N[C@@H](Cc2c[nH]c3ccccc23)C(=O)N[C@@H](CCN)C(=O)N[C@@H](Cc2c[nH]c3ccccc23)C(=O)N1C [Example 5090] ({CH2CO}-Y[NMeA][Dab]PHE[Hyp]W[Dab]W[NMeNle][NMeNle]LCG-NH2; thioether N-14) |
| 6.76 to 30.3 | 4.78 to 72.9 |  | CCCC[C@H]1C(=O)N(C)[C@@H](CCCC)C(=O)N[C@@H](CCCNC(=N)N)C(=O)N[C@H](C(=O)NCC(N)=O)CSCC(=O)N[C@@H](Cc2ccc(O)cc2)C(=O)N(C)[C@@H](C)C(=O)N[C@@H](CCN)C(=O)N2CCC[C@H]2C(=O)N[C@@H](Cc2c[nH]cn2)C(=O)N[C@@H](CCC(N)=O)C(=O)N2C[C@H](O)C[C@H]2C(=O)N[C@@H](Cc2c[nH]c3ccccc23)C(=O)N[C@@H](CO)C(=O)N[C@@H](Cc2c[nH]c3ccccc23)C(=O)N1C [Example 5092] ({CH2CO}-Y[NMeA][Dab]PHQ[Hyp]WSW[NMeNle][NMeNle]RCG-NH2; thioether N-14) |
| 0.385 to 6.74 | 0.158 to 4.71 |  | CCCC[C@H]1C(=O)N(C)[C@@H](CCCC)C(=O)N[C@@H](CC(=O)O)C(=O)N[C@H](C(=O)NCC(N)=O)CSCC(=O)N[C@@H](Cc2ccc(O)cc2)C(=O)N(C)[C@@H](C)C(=O)N[C@@H](CC(=O)O)C(=O)N2CCC[C@H]2C(=O)N[C@@H](Cc2c[nH]cn2)C(=O)N[C@@H](CCCCN)C(=O)N2C[C@H](O)C[C@H]2C(=O)N[C@@H](Cc2c[nH]c3ccccc23)C(=O)N[C@@H](CCCCN)C(=O)N[C@@H](Cc2c[nH]c3ccccc23)C(=O)N1C [Example 5096] ({CH2CO}-Y[NMeA]DPHK[Hyp]WKW[NMeNle][NMeNle]DCG-NH2; thioether N-14) |

Second part, the molecule before the results:

| SMILES | IC50 [1] [nM] | IC50 [2, 3] [nM] | IC50 ([2]; value given instead of cluster, read-out: CBA IC50 value) [nM] |
| --- | --- | --- | --- |
| CCCC[C@H]1C(=O)N(C)[C@@H](CCCC)C(=O)N[C@@H](CCC(=O)O)C(=O)N[C@H](C(=O)NCC(N)=O)CSCC(=O)N[C@@H](Cc2ccc(O)cc2)C(=O)N(C)[C@@H](C)C(=O)N[C@@H](CCN)C(=O)N2CCC[C@H]2C(=O)N[C@@H](CO)C(=O)N[C@@H](CCC(=O)O)C(=O)N2C[C@H](O)C[C@H]2C(=O)N[C@@H](Cc2c[nH]c3ccccc23)C(=O)N[C@@H](CCCCN)C(=O)N[C@@H](Cc2c[nH]c3ccccc23)C(=O)N1C [Example 5085] ({CH2CO}-Y[NMeA][Dab]PSE[Hyp]WKW[NMeNle][NMeNle]ECG-NH2; thioether N-14) | 0.385 to 6.74 | 0.158 to 4.71 |  |
| CCCC[C@H]1C(=O)N(C)[C@@H](CCCC)C(=O)N[C@@H](C)C(=O)N[C@H](C(=O)NCC(N)=O)CSCC(=O)N[C@@H](Cc2ccc(O)cc2)C(=O)N(C)[C@@H](C)C(=O)N[C@@H](CCN)C(=O)N2CCC[C@H]2C(=O)N[C@@H](Cc2c[nH]cn2)C(=O)N[C@@H](CCC(=O)O)C(=O)N2C[C@H](O)C[C@H]2C(=O)N[C@@H](Cc2c[nH]c3ccccc23)C(=O)N[C@@H](CO)C(=O)N[C@@H](Cc2c[nH]c3ccccc23)C(=O)N1C [Example 5087] ({CH2CO}-Y[NMeA][Dab]PHE[Hyp]WSW[NMeNle][NMeNle]ACG-NH2; thioether N-14) | 0.385 to 6.74 | 4.78 to 72.9 |  |
| CCCC[C@H]1C(=O)N(C)[C@@H](CCCC)C(=O)N[C@@H](CC(C)C)C(=O)N[C@H](C(=O)NCC(N)=O)CSCC(=O)N[C@@H](Cc2ccc(O)cc2)C(=O)N(C)[C@@H](C)C(=O)N[C@@H](CC(N)=O)C(=O)N2CCC[C@H]2C(=O)N[C@@H](Cc2c[nH]cn2)C(=O)N[C@@H](CCCCN)C(=O)N2C[C@H](O)C[C@H]2C(=O)N[C@@H](Cc2c[nH]c3ccccc23)C(=O)N[C@@H](CCCCN)C(=O)N[C@@H](Cc2c[nH]c3ccccc23)C(=O)N1C [Example 5089] ({CH2CO}-Y[NMeA]NPHK[Hyp]WKW[NMeNle][NMeNle]LCG-NH2; thioether N-14) | 0.385 to 6.74 | 0.158 to 4.71 |  |
| CCCC[C@H]1C(=O)N(C)[C@@H](CCCC)C(=O)N[C@@H](CCN)C(=O)N[C@H](C(=O)NCC(N)=O)CSCC(=O)N[C@@H](Cc2ccc(O)cc2)C(=O)N(C)[C@@H](C)C(=O)N[C@@H](CCN)C(=O)N2CCC[C@H]2C(=O)N[C@@H](Cc2c[nH]cn2)C(=O)N[C@@H](CCC(=O)O)C(=O)N2C[C@H](O)C[C@H]2C(=O)N[C@@H](Cc2c[nH]c3ccccc23)C(=O)N[C@@H](C(C)C)C(=O)N[C@@H](Cc2c[nH]c3ccccc23)C(=O)N1C [Example 5091] ({CH2CO}-Y[NMeA][Dab]PHE[Hyp]WVW[NMeNle][NMeNle][Dab]CG-NH2; thioether N-14) | 6.76 to 30.3 | 4.78 to 72.9 |  |
| CCCC[C@H]1C(=O)N(C)[C@@H](CCCC)C(=O)N[C@@H](CCCNC(=N)N)C(=O)N[C@H](C(=O)NCC(N)=O)CSCC(=O)N[C@@H](Cc2ccc(O)cc2)C(=O)N(C)[C@@H](C)C(=O)N[C@@H](CCN)C(=O)N2CCC[C@H]2C(=O)N[C@@H](Cc2c[nH]cn2)C(=O)N[C@@H](CC(C)C)C(=O)N2C[C@H](O)C[C@H]2C(=O)N[C@@H](Cc2c[nH]c3ccccc23)C(=O)N[C@@H](CO)C(=O)N[C@@H](Cc2c[nH]c3ccccc23)C(=O)N1C [Example 5094] ({CH2CO}-Y[NMeA][Dab]PHL[Hyp]WSW[NMeNle][NMeNle]RCG-NH2; thioether N-14) | 0.385 to 6.74 | 4.78 to 72.9 |  |
| CCCC[C@H]1C(=O)N(C)[C@@H](CCCC)C(=O)N[C@@H](CC(C)C)C(=O)N[C@H](C(=O)NCC(N)=O)CSCC(=O)N[C@@H](Cc2ccc(O)cc2)C(=O)N(C)[C@@H](C)C(=O)N[C@@H](CC(=O)O)C(=O)N2CCC[C@H]2C(=O)N[C@@H](Cc2c[nH]cn2)C(=O)N[C@@H](CCCCN)C(=O)N2C[C@H](O)C[C@H]2C(=O)N[C@@H](Cc2c[nH]c3ccccc23)C(=O)N[C@@H](CCCCN)C(=O)N[C@@H](Cc2c[nH]c3ccccc23)C(=O)N1C [Example 5095] ({CH2CO}-Y[NMeA]DPHK[Hyp]WKW[NMeNle][NMeNle]LCG-NH2; thioether N-14) | 0.385 to 6.74 | 0.158 to 4.71 |  |
| CCCC[C@H]1C(=O)N(C)[C@@H](CCCC)C(=O)N[C@@H](CO)C(=O)N[C@H](C(=O)NCC(N)=O)CSCC(=O)N[C@@H](Cc2ccc(O)cc2)C(=O)N(C)[C@@H](C)C(=O)N[C@@H](CCN)C(=O)N2CCC[C@H]2C(=O)N[C@@H](Cc2c[nH]cn2)C(=O)N[C@@H](CCC(=O)O)C(=O)N2C[C@H](O)C[C@H]2C(=O)N[C@@H](Cc2c[nH]c3ccccc23)C(=O)N[C@@H](C(C)C)C(=O)N[C@@H](Cc2c[nH]c3ccccc23)C(=O)N1C [Example 5097] ({CH2CO}-Y[NMeA][Dab]PHE[Hyp]WVW[NMeNle][NMeNle]SCG-NH2; thioether N-14) | 6.76 to 30.3 |  | 74.3 |
| CCCC[C@H]1C(=O)N(C)[C@@H](CCCC)C(=O)N[C@@H](CCC(=O)O)C(=O)N[C@H](C(=O)NCC(N)=O)CSCC(=O)N[C@@H](Cc2ccc(O)cc2)C(=O)N(C)[C@@H](C)C(=O)N[C@@H](CC(=O)O)C(=O)N2CCC[C@H]2C(=O)N[C@@H](Cc2c[nH]cn2)C(=O)N[C@@H](CCCCN)C(=O)N2C[C@H](O)C[C@H]2C(=O)N[C@@H](Cc2c[nH]c3ccccc23)C(=O)N[C@@H](CO)C(=O)N[C@@H](Cc2c[nH]c3ccccc23)C(=O)N1C [Example 5098] ({CH2CO}-Y[NMeA]DPHK[Hyp]WSW[NMeNle][NMeNle]ECG-NH2; thioether N-14) | 0.385 to 6.74 | 4.78 to 72.9 |  |
